Where two headings read alike, the source gives them in different places.
Legend:
[1] = test system: A. baumannii clinical isolates; test: microbe, parasite or virus in culture; assay type: cell-based; conditions: Acinetobacter baumannii
In short: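 Broth microdilution MICs following CLSI methods, interpreted with CLSI breakpoints where available. Sulbactam tested as twofold dilutions combined with fixed 4 µg/mL durlobactam.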

[2] = test system: A. baumannii PBP3 Q488K; test: Acylation rate constant (kinact/Ki), fluorescence anisotropy competition with BOCILLIN

## C[C@@H](O)[C@H]1C(=O)N2C(C(=O)O)=C(SCCN=CN)C[C@H]12 [imipenem]
[1]; isolate ARC6950 (IHMA 1820064), Israel, RTI, 2018, read-out: MIC
  MIC: > 64 µg/mL
[1]; isolate ARC6953 (IHMA 1909827), Turkey, IAI, 2018, read-out: MIC
  MIC: 64 µg/mL
[1]; isolate ARC6954 (IHMA 1838192), Guatemala, SSSI, 2018, read-out: MIC
  MIC: > 64 µg/mL
[1]; isolate ARC6955 (IHMA 1825425), United States, RTI, 2018, read-out: MIC
  MIC: 64 µg/mL
[1]; isolate ARC7008 (IHMA 2009813), Thailand, BSI, 2019, read-out: MIC
  MIC: > 64 µg/mL
[1]; isolate ARC7009 (IHMA 2043611), United States, UTI, 2019, read-out: MIC
  MIC: > 64 µg/mL
[1]; isolate ARC7010 (IHMA 2043398), United States, RTI, 2019, read-out: MIC
  MIC: > 64 µg/mL
[1]; isolate ARC7011 (IHMA 2104553), Germany, RTI, 2019, read-out: MIC
  MIC: > 64 µg/mL
[1]; isolate ARC7012 (IHMA 2010001), Thailand, RTI, 2019, read-out: MIC
  MIC: > 64 µg/mL
[1]; isolate ARC7013 (IHMA 1962831), Argentina, RTI, 2019, read-out: MIC
  MIC: > 64 µg/mL
[1]; isolate ARC7014 (IHMA 2045328), Guatemala, IAI, 2019, read-out: MIC
  MIC: 64 µg/mL
[1]; isolate ARC7015 (IHMA 2045327), Guatemala, UTI, 2019, read-out: MIC
  MIC: 64 µg/mL
[1]; isolate ARC7016 (IHMA 2148441), Brazil, BSI, 2019, read-out: MIC
  MIC: > 64 µg/mL
[1]; isolate ARC7017 (IHMA 2148446), Brazil, BSI, 2019, read-out: MIC
  MIC: > 64 µg/mL
[1]; isolate ARC7018 (IHMA 2045454), Guatemala, IAI, 2019, read-out: MIC
  MIC: > 64 µg/mL
[1]; isolate ARC7019 (IHMA 2114463), Thailand, RTI, 2019, read-out: MIC
  MIC: > 64 µg/mL
[1]; isolate ARC7020 (IHMA 2045326), Guatemala, RTI, 2019, read-out: MIC
  MIC: 64 µg/mL
[1]; isolate ARC7021 (IHMA 1966347), Guatemala, RTI, 2019, read-out: MIC
  MIC: 64 µg/mL
[1]; isolate ARC7022 (IHMA 2045319), Guatemala, IAI, 2019, read-out: MIC
  MIC: 64 µg/mL
[1]; isolate ARC7024 (IHMA 2059448), Turkey, RTI, 2019, read-out: MIC
  MIC: 64 µg/mL
[1]; isolate ARC7025 (IHMA 2002121), Spain, RTI, 2019, read-out: MIC
  MIC: 64 µg/mL
[1]; isolate ARC7026 (IHMA 2104494), Guatemala, BSI, 2019, read-out: MIC
  MIC: > 64 µg/mL
[1]; isolate ARC7082 (IHMA 2160640), Belgium, BSI, 2020, read-out: MIC
  MIC: > 64 µg/mL
[1]; isolate ARC7083 (IHMA 2163687), United States, RTI, 2020, read-out: MIC
  MIC: 64 µg/mL
[1]; isolate ARC7084 (IHMA 2189596), Germany, RTI, 2020, read-out: MIC
  MIC: > 64 µg/mL
[1]; isolate ARC7085 (IHMA 2205747), Guatemala, IAI, 2020, read-out: MIC
  MIC: > 64 µg/mL
[1]; isolate ARC7086 (IHMA 2207563), Israel, RTI, 2020, read-out: MIC
  MIC: > 64 µg/mL
[1]; isolate ARC7088 (IHMA 2215554), Turkey, BSI, 2020, read-out: MIC
  MIC: > 64 µg/mL
[1]; isolate ARC7089 (IHMA 2240345), Argentina, BSI, 2020, read-out: MIC
  MIC: 64 µg/mL
[1]; isolate ARC7090 (IHMA 2244410), Poland, RTI, 2020, read-out: MIC
  MIC: > 64 µg/mL
[1]; isolate ARC7091 (IHMA 2244564), Australia, RTI, 2020, read-out: MIC
  MIC: > 64 µg/mL
[1]; isolate ARC7092 (IHMA 2258772), United States, BSI, 2020, read-out: MIC
  MIC: > 64 µg/mL
[1]; isolate ARC7093 (IHMA 2258783), United States, RTI, 2020, read-out: MIC
  MIC: > 64 µg/mL
[1]; isolate ARC7094 (IHMA 2296423), Turkey, RTI, 2020, read-out: MIC
  MIC: 64 µg/mL
[1]; isolate ARC7095 (IHMA 2320843), Turkey, BSI, 2020, read-out: MIC
  MIC: 64 µg/mL
[1]; isolate ARC7156 (IHMA 2455450), Greece, RTI, 2021, read-out: MIC
  MIC: > 64 µg/mL
[1]; isolate ARC7158 (IHMA 2523738), Italy, BSI, 2021, read-out: MIC
  MIC: > 64 µg/mL
[1]; isolate ARC7159 (IHMA 2456229), Malaysia, RTI, 2021, read-out: MIC
  MIC: > 64 µg/mL
[1]; isolate ARC7160 (IHMA 2458626), Thailand, RTI, 2021, read-out: MIC
  MIC: > 64 µg/mL
[1]; isolate ARC7161 (IHMA 2429252), Ukraine, RTI, 2021, read-out: MIC
  MIC: > 64 µg/mL
[1]; isolate ARC7162 (IHMA 2411847), United States, BSI, 2021, read-out: MIC
  MIC: > 64 µg/mL
[1]; isolate ARC7163 (IHMA 2477704), United States, BSI, 2021, read-out: MIC
  MIC: > 64 µg/mL
[2]
  % WT: 82.2%
[2]; average ± SD
  k inact/K i: 370 ± 20 ([2]) M^-1s^-1

Source: paper PMC10648852, “Molecular drivers of resistance to sulbactam-durlobactam in contemporary clinical isolates of Acinetobacter baumannii” (Antimicrobial Agents and Chemotherapy, 2023)
